Source: ChEMBL document CHEMBL2346651, “Structure-activity relationship study of tachykinin peptides for the development of novel neurokinin-3 receptor selective agonists” (Bioorg Med Chem, 2013)
Residues, ends and D or L forms follow the SMILES beside them.

Experiments:
Neuromedin-K receptor [1] = biological target: T1, Neuromedin-K receptor (Homo sapiens, UniProt P29371); assay: Agonist activity at NK3R (unknown origin) transfected in CHO cells assessed as calcium influx […]; type: functional, cell-based
T1 sequence (P29371 whole entry): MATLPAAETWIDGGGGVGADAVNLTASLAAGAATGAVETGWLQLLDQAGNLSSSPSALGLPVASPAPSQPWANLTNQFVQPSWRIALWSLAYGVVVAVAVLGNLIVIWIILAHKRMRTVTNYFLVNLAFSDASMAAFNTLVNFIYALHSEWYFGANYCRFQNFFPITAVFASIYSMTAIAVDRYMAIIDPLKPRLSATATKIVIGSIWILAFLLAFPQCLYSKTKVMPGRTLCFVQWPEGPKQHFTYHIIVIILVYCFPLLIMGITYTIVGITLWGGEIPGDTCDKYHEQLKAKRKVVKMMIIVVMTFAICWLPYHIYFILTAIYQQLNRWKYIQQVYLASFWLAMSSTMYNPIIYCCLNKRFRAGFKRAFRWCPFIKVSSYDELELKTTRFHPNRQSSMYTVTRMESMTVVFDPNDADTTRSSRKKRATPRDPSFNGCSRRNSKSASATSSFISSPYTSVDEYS

[2] = biological target: T2, Substance-K receptor (Homo sapiens) (UniProt P21452); assay: Displacement of [125I]-NKA from NK2R (unknown origin) transfected in CHO cells at 10 uM by gamma counting analysis; type: cell-based
T2 sequence (whole entry): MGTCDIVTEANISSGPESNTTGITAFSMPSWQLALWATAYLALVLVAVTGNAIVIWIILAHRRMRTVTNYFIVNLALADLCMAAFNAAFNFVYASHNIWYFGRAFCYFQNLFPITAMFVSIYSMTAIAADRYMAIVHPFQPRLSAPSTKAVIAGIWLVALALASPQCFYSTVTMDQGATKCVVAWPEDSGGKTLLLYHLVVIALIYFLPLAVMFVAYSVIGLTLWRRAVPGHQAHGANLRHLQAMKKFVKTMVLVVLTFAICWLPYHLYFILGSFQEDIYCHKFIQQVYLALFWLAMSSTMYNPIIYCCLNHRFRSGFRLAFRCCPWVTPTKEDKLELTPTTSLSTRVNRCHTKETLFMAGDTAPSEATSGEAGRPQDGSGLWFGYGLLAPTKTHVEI

Neuromedin-K receptor [3] = biological target: T1, Neuromedin-K receptor; assay: Displacement of ([125I]-His3, MePhe7)-NKB from NK3R (unknown origin) transfected in CHO cells by gamma counting analysis; type: cell-based
[4] = biological target: Substance-P receptor (Homo sapiens) (UniProt P25103); assay: Displacement of [125I]-BH-SP from NK1R (unknown origin) transfected in CHO cells at 10 uM by gamma counting analysis; type: cell-based
Substance-P receptor (Homo sapiens), sequence (P25103 whole entry): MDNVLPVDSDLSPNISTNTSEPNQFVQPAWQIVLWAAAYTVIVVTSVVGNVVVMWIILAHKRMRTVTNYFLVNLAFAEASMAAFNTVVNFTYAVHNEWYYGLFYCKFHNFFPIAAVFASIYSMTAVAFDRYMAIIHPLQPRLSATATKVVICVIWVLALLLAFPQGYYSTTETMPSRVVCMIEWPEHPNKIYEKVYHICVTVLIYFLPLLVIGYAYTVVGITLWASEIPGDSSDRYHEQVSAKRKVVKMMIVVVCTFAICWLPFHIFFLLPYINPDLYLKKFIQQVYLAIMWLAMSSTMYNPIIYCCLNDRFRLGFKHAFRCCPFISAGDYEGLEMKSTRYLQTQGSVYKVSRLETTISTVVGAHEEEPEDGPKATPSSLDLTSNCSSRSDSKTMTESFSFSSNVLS

An EC50 (Neuromedin-K receptor [1]) of 0.0054 nM, an inhibition [2] of 56% and an IC50 (Neuromedin-K receptor [3]) of 35 nM were found for `CC[C@H](C)[C@H](NC(=O)[C@H](Cc1ccccc1)NC(=O)[C@H](CC(=O)O)NC(=O)[C@H](CC(=O)O)NC(=O)[C@H](CCCCN)NC(=O)[C@H](CO)NC(=O)[C@@H]1CCCN1C(=O)[C@@H]1CCC(=O)N1)C(=O)NCC(=O)N[C@@H](CC(C)C)C(=O)N[C@@H](CCSC)C(N)=O` (HELM PEPTIDE1{[Glp].P.S.K.D.D.F.I.G.L.M.[am]}$$$$V2.0) in this work. The inhibition [4] was 91%.
An EC50 (Neuromedin-K receptor [1]) of 0.078 nM, an inhibition [2] of under 10% and an IC50 (Neuromedin-K receptor [3]) of 5.5 nM were found for `CSCC[C@H](NC(=O)[C@H](CC(C)C)NC(=O)CNC(=O)[C@H](Cc1ccccc1)N(C)C(=O)[C@H](Cc1ccccc1)NC(=O)[C@H](CC(=O)O)NC(=O)[C@H](CC(=O)O)NC(=O)[C@H](CCCCN)NC(=O)[C@H](CO)NC(=O)[C@@H]1CCCN1C(=O)[C@@H]1CCC(=O)N1)C(N)=O` (HELM PEPTIDE1{[Glp].P.S.K.D.D.F.[meF].G.L.M.[am]}$$$$V2.0) in this work. For the same compound, the inhibition [4] was under 10%.
An EC50 (Neuromedin-K receptor [1]) of 0.13 nM, an inhibition [2] of under 10% and an IC50 (Neuromedin-K receptor [3]) of 17 nM were found for `CSCC[C@H](NC(=O)[C@H](CC(C)C)NC(=O)CNC(=O)[C@H](Cc1ccccc1)N(C)C(=O)[C@H](Cc1ccccc1)NC(=O)[C@H](CC(=O)O)NC(=O)[C@H](CC(N)=O)NC(=O)[C@@H]1CCCN1C(=O)[C@H](CO)NC(=O)[C@@H]1CCCN1C(=O)[C@@H]1CCC(=O)N1)C(N)=O` (HELM PEPTIDE1{[Glp].P.S.P.N.D.F.[meF].G.L.M.[am]}$$$$V2.0) in this work. For the same compound, the inhibition [4] was under 10%.
An EC50 (Neuromedin-K receptor [1]) of 10.9 nM, an inhibition [2] of 98% and an IC50 (Neuromedin-K receptor [3]) of 1930 nM were found for H-DTGDKFYGLM-NH2 [SIALOKININ II] in this work. It also gave an inhibition [4] of 99%.
An EC50 (Neuromedin-K receptor [1]) of 0.47 nM, an inhibition [2] of 74% and an IC50 (Neuromedin-K receptor [3]) of 89 nM were found for H-DVPKSDDFVGLM-NH2 in this work. The inhibition [4] was 53%.
